We go through 6 molecules from patent US20260042764A1, “COMPOSITIONS AND METHODS FOR INHIBITION OF KRAS” (TheRas, Inc., priority 2022, published 2026).

Where only a bound is given, the exact number is not on record here.

Experiment [1] concerns SW1900 cells (KRAS G12D). Briefly: 3D Cell viability assay in SW1900 cells (Biological Example 6). It is filed as cell-based. The following applies: Homo sapiens; SW1990 (text: SW1900, KRAS G12D) spheroids, 72 hours. The protocol:
(§1) Biological Example 6: 3D Cell viability assay in AsPC-1, SW1900, HPAC, Capan-2, RKN, H358, HCT116, KP-2, H1573, A549, MKN1, and HT1080 cells
(§2) The inhibition of cellular viability as a result of test compound treatment in a spheroid assay was measured using the CellTiter-Glow 3D Cell Viability Assay (Promega).
(§3) On Day 1, 1000 cells per well were seeded in 150 μL of complete growth media supplemented with 10% fetal bovine serum (FBS) and incubated at 37° C., in the presence of 5% CO2 in 96-well ultra-low attachment microplates (Corning) for 48 hours undisturbed to allow spheroids to form.
(§4) Following spheroid formation, cells were treated with compounds diluted in DMSO at 0.25% final DMSO concentration. Compounds were dosed in a 9-point concentration curve with three-fold dilution between concentrations. Cells were incubated in the presence of compound for 72 hours at 37° C., in the presence of 5% CO2.
(§5) Following this incubation period, the kit-provided CTG reagent was allowed to equilibrate for 30 minutes at room temperature, 150 μL of equilibrated CTG reagent was added to each well, and the plate was sealed before shaking at 250 rpm for 10 minutes at room temperature to lyse the cells, 150 μL of lysate per well was transferred to a 96-well plate and luminescence was read on a CLARIOstar plate reader.
(§6) Data was imported into the Prism software package (Graphpad) and EC50 values were calculated using the log (inhibitor) vs, response—variable slope (Four parameters) model.

The subject of experiment [2] is HPAC cells (KRAS G12D). The experiment is described as follows: Cell-based pERK HTRF assay in HPAC cells (Biological Example 5). The following applies: Homo sapiens, HPAC. The procedure:
(§7) Biological Example 5: Cell-based PERK HTRF assay in AsPC-1, SW1900, HPAC, Capan-2, RKN, H358, HCT116, KP-2, H1573, A549, MKN1, and HT1080 cells
(§8) The inhibition of ERK phosphorylation, as measured using the HTRF Advanced Phospho-ERK 1/2 (Thr202/Tyr204) Detection Assay kit (Perkin Elmer), was used to determine the effectiveness of test compounds in disrupting KRAS-driven protein/effector signaling in cells.
(§9) On day 1, cells were seeded into 96-well plates at 2.5×10^4 cells/well in 100 μL of complete growth media supplemented with 10% fetal bovine serum (FBS) and incubated at 37° C., in the presence of 5% CO2.
(§10) On day 2, cells were treated with compounds diluted in DMSO at 0.25% final DMSO concentration. Compounds were dosed in a 9-point concentration curve with three-fold dilution between concentrations. Cells were incubated in the presence of compound for two hours at 37° C. Following this treatment period, cells were harvested by aspirating the media, adding 40 μL of kit-supplied 1x lysis buffer per well, and shaking for 30 minutes at 250 rpm at room temperature.
(§11) Following cell lysis, samples were homogenized by pipetting up and down twenty times and 16 μL of cell lysate per well was transferred from the 96-well cell culture plate to two wells of a 384-well detection plate. A complete detection buffer was prepared by diluting D2 and Eu Cryptate antibodies 1:20 in kit-provided detection solution, 4 μL of complete detection buffer was then added to each well with lysate. Plates were incubated with gentle rocking for 24 hours at 4° C.
(§12) Following this incubation period, plates were centrifuged at 500×g for one minute and analyzed on a CLARIOstar plate reader. Data was imported into Microsoft Excel and the signal from the 665 nm channel was divided by the signal from the 620 nm channel. % pERK was calculated as: […]
(§13) Data was imported to the Prism software package (Graphpad) and EC50 values were calculated using the log (inhibitor) vs, response—variable slopc (Four parameters) model.
In general terms: In TR-FRET formats the signal depends on donor and acceptor labels being close together.

In a further experiment the test system is HCT116 cells (KRAS G13D). The experiment is described as follows: 3D Cell viability assay in HCT116 cells (Biological Example 6). Particulars: Homo sapiens, HCT-116; HCT116 (KRAS G13D) spheroids, 72 hours. Format: cell-based. The protocol:
as §1, §2, §3, §4, §5, §6

The test system of experiment [3] is SW1900 cells (KRAS G12D). The experiment is described as follows: Cell-based pERK HTRF assay in SW1900 cells (Biological Example 5). Particulars: Homo sapiens, SW1990, SW1990 cells (text: SW1900, KRAS G12D). The protocol: as §7, §8, §9, §10, §11, §12, §13
Experiment [4] relates to Capan-2 cells (KRAS G12V). The experiment is described as follows: Cell-based pERK HTRF assay in Capan-2 cells (Biological Example 5). Particulars: Homo sapiens, Capan-2, Capan-2 (KRAS G12V) cells. The procedure:
as §7, §8, §9, §10, §11, §12, §13

For experiment [5], the system named is HPAC cells (KRAS G12D). The experiment is described as follows: 3D Cell viability assay in HPAC cells (Biological Example 6). It is filed as cell-based. The following applies: Homo sapiens, HPAC, 72 h, HPAC (KRAS G12D) spheroids. The procedure:
as §1, §2, §3, §4, §5, §6

The subject of experiment [6] is H358 cells (KRAS G12C). The experiment is described as follows: 3D Cell viability assay in H358 cells (Biological Example 6). Format: cell-based. The following applies: Homo sapiens, NCI-H358; H358 (KRAS G12C) spheroids, 72 hours. The protocol:
as §1, §2, §3, §4, §5, §6

The subject of experiment [7] is H358 cells (KRAS G12C). Briefly: Cell-based pERK HTRF assay in H358 cells (Biological Example 5). The following applies: Homo sapiens, NCI-H358, H358 (KRAS G12C) cells. The protocol:
as §7, §8, §9, §10, §11, §12, §13

For experiment [8], the system named is Capan-2 cells (KRAS G12V). Briefly: 3D Cell viability assay in Capan-2 cells (Biological Example 6). It is filed as cell-based. The following applies: Homo sapiens; Capan-2 (KRAS G12V) spheroids, 72 hours. The protocol: as §1, §2, §3, §4, §5, §6
Experiment [9] concerns MKN1 cells (KRAS amplification). The experiment is described as follows: 3D Cell viability assay in MKN1 cells (Biological Example 6). Format: cell-based. The following applies: Homo sapiens, MKN-1; MKN (MKN1, KRAS amplification) spheroids, 72 hours. The protocol: as §1, §2, §3, §4, §5, §6

For orientation: IC50 means the midpoint of a concentration-inhibition curve. Take `N#Cc1c(N)sc2c(F)ccc(-c3c(C(F)(F)F)cc4c(N5CCC[C@@H](O)C5)nc(OC[C@@]56CCCN5C[C@H](F)C6)nc4c3F)c12` [Compound 234]: the half-maximal inhibitory concentration (IC50) was at most 100 nM in the experiment with SW1900 cells (KRAS G12D) [1]; 100 to 1000 nM with HPAC cells (KRAS G12D) [2]; 100 to 1000 nM with HCT116 cells (KRAS G13D); at most 100 nM with SW1900 cells (KRAS G12D) [3]; at most 100 nM in [4]; above 1000 nM in the experiment on HPAC cells (KRAS G12D) [5]. In addition, the half-maximal inhibitory concentration (IC50) in the experiment with H358 cells (KRAS G12C) [6] and in the experiment with H358 cells (KRAS G12C) [7] was at most 100 nM throughout.

In the case of `C[C@@H]1[C@H](N(C)c2nc(OC[C@@]34CCCN3C[C@H](F)C4)nc3c(F)c(-c4ccc(F)c5sc(N)c(C#N)c45)c(C(F)(F)F)cc23)CCN1C(=O)C1CC1` [Compound 258], the IC50 in the experiment on SW1900 cells (KRAS G12D) [1] was at most 100 nM; with HPAC cells (KRAS G12D) [2] it was above 1000 nM; in the experiment on HCT116 cells (KRAS G13D), 100 to 1000 nM; with SW1900 cells (KRAS G12D) [3], at most 100 nM; in the experiment on HPAC cells (KRAS G12D) [5], 100 to 1000 nM; with H358 cells (KRAS G12C) [6], at most 100 nM. In the experiment with H358 cells (KRAS G12C) [7], the half-inhibitory concentration (IC50) was at most 100 nM.

With `CCC(=O)N1CC[C@@H](N(C)c2nc(OC[C@@]34CCCN3C[C@H](F)C4)nc3c(F)c(-c4ccc(F)c5sc(N)c(C#N)c45)c(C(F)(F)F)cc23)[C@H]1C` [Compound 260], the half-inhibitory concentration (IC50) was 100 to 1000 nM in the experiment with SW1900 cells (KRAS G12D) [1]; 100 to 1000 nM in the experiment on HPAC cells (KRAS G12D) [2]; 100 to 1000 nM in the experiment on HCT116 cells (KRAS G13D); at most 100 nM with SW1900 cells (KRAS G12D) [3]; at most 100 nM in experiment [4]; 100 to 1000 nM with HPAC cells (KRAS G12D) [5]. For the same molecule, the concentration for half-maximal inhibition (IC50) (in the experiment with H358 cells (KRAS G12C) [6]; in the experiment on H358 cells (KRAS G12C) [7]; in [8]) was at most 100 nM in each case.

Regarding `CCN(c1nc(OC[C@@]23CCCN2C[C@H](F)C3)nc2c(F)c(-c3ccc(F)c4sc(N)c(C#N)c34)c(Cl)cc12)[C@@H]1CCN(C(C)=O)[C@@H]1C` [Compound 323], the IC50 in the experiment on SW1900 cells (KRAS G12D) [1] was at most 100 nM; with HPAC cells (KRAS G12D) [2], at most 100 nM; in the experiment with HCT116 cells (KRAS G13D), 100 to 1000 nM; with SW1900 cells (KRAS G12D) [3], at most 100 nM; in experiment [4] it was at most 100 nM; in the experiment with HPAC cells (KRAS G12D) [5], at most 100 nM. Moreover, the half-maximal inhibitory concentration (IC50) (in experiment [9]; in the experiment on H358 cells (KRAS G12C) [6]; in the experiment on H358 cells (KRAS G12C) [7]; in experiment [8]) was at most 100 nM in each case.

On to `CCN(c1nc(OC[C@@]23CCCN2C[C@H](F)C3)nc2c(F)c(-c3ccc(F)c4sc(N)c(C#N)c34)c(Cl)cc12)[C@@H]1CCN(C(=O)C2CC2)[C@@H]1C` [Compound 337], for which the IC50 in the experiment on SW1900 cells (KRAS G12D) [1] is at most 100 nM; with HPAC cells (KRAS G12D) [2], at most 100 nM; with HCT116 cells (KRAS G13D) it was 100 to 1000 nM; in the experiment on SW1900 cells (KRAS G12D) [3], at most 100 nM; in experiment [4], at most 100 nM; in the experiment with HPAC cells (KRAS G12D) [5], 100 to 1000 nM. In addition, the IC50 in [9] is at most 100 nM; in the experiment with H358 cells (KRAS G12C) [6], at most 100 nM; in the experiment with H358 cells (KRAS G12C) [7] it was at most 100 nM; in experiment [8] it was 100 to 1000 nM.

In the case of `CC(=O)N1CC[C@@H](N(C)c2nc(OC[C@@]34CCCN3C[C@H](F)C4)nc3c(F)c(-c4ccc(F)c5sc(N)c(C#N)c45)c(Cl)cc23)[C@H]1C` [Compound 398], the IC50 was 100 to 1000 nM in the experiment with SW1900 cells (KRAS G12D) [1]; 100 to 1000 nM with HPAC cells (KRAS G12D) [2]; 100 to 1000 nM with HCT116 cells (KRAS G13D); at most 100 nM in the experiment on SW1900 cells (KRAS G12D) [3]; at most 100 nM in [4]; 100 to 1000 nM with HPAC cells (KRAS G12D) [5]. Further, the IC50 in experiment [9] is at most 100 nM; with H358 cells (KRAS G12C) [6], at most 100 nM; in the experiment with H358 cells (KRAS G12C) [7] it was at most 100 nM; in experiment [8], 100 to 1000 nM.
